# Literature values as cited in PubChem BioAssay AID1259409 (Chemical Carcinogenesis Research Information System (CCRIS), 2018).
# Test system: rodent chemically induced tumor inhibition, incidence and multiplicity
# Assay: CCRIS tumor inhibitor studies
# Details: Carcinogen: N-ETHYL-N-HYDROXYETHYLNITROSAMINE; 13147-25-6; Dose [Inhibitor]: 0; 0.02% IN DIET BEGINNING 23 WK POST LAST CARCINOGEN DOSE AND CONTINUING TO WK 40 (STUDY DURATION: 40 WK); Route [Inhibitor]: ORAL; Species: RAT; Strain/Sex: WISTAR/MALE; Target Tissue: Type of Lesion: KIDNEY: RENAL CELL TUMORS; Dose [Carcinogen]: 0.1% IN DIET FOR 2 WK; Promoter: NONE USED
smiles,measurement,value
CC[C@H](C)C(=O)O[C@H]1CCC=C2C=C[C@H](C)[C@H](CC[C@@H]3C[C@@H](O)CC(=O)O3)[C@H]21,"tumour outcome (control, treated, inhibition, significance)","6/17 (35%), 1/10 (10%), 71%, not calculated"
